This test has as its target T1, human kinase Mps-1 (Homo sapiens, UniProt P33981).
T1 construct: N-terminally GST-tagged human full length recombinant Mps-1 kinase; GST (N); purchased Invitrogen, Karslruhe, Germany PV4071
T1 sequence (P33981 1-857): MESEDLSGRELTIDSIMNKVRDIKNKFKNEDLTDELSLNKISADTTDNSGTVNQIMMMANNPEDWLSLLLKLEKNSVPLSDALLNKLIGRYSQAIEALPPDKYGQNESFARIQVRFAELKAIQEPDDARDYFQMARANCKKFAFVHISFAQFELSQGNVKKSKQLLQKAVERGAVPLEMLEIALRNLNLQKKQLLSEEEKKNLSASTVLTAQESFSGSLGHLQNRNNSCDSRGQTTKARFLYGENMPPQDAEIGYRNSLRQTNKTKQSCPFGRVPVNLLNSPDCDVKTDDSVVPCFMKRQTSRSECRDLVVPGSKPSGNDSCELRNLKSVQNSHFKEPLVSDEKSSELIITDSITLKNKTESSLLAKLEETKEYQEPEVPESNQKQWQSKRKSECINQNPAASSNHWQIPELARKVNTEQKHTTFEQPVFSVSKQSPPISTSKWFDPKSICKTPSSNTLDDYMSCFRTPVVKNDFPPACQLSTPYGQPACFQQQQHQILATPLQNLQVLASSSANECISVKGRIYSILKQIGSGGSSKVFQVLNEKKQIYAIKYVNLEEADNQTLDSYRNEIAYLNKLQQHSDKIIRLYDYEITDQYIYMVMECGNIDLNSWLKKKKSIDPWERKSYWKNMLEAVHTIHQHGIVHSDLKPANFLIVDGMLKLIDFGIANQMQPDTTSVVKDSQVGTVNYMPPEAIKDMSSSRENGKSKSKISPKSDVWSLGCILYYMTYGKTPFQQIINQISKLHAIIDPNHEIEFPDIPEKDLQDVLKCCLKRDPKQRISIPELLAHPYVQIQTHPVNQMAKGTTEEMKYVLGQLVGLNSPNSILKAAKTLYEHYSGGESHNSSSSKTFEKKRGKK
Put plainly: Mps-1 kinase assay (TR-FRET). The note with it: Mps-1 TR-FRET kinase assay; avg; read-out: Mps1 avg (IC50 [mol/l]). Format: biochemical. How it is done:
The human kinase Mps-1 phosphorylates a biotinylated substrate peptide. Detection of the phosphorylated product is achieved by time-resolved fluorescence resonance energy transfer (TR-FRET) from Europium-labelled anti-phospho-Serine/Threonine antibody as donor to streptavidin labelled with cross-linked allophycocyanin (SA-XLent) as acceptor. Compounds are tested for their inhibition of the kinase activity.
N-terminally GST-tagged human full length recombinant Mps-1 kinase (purchased from Invitrogen, Karslruhe, Germany, cat. no PV4071) was used. As substrate for the kinase reaction a biotinylated peptide of the amino-acid sequence biotin-Ahx-PWDPDDADITEILG (C-terminus in amide form, purchased from Biosyntan GmbH, Berlin) was used.
For the assay 50 nl of a 100-fold concentrated solution of the test compound in DMSO was pipetted into a black low volume 384we11 microtiter plate (Greiner Bio-One, Frickenhausen, Germany), 2 μl of a solution of Mps-1 in assay buffer [0.1 mM sodium-ortho-vanadate, 10 mM MgCl2,2 mM DTT, 25 mM Hepes pH 7.7, 0.05% BSA (w/v), 0.001% Pluronic F-127] were added and the mixture was incubated for 15 min at 22° C. to allow pre-binding of the test compounds to Mps-1 before the start of the kinase reaction. Then the kinase reaction was started by the addition of 3 μl of a solution of 16.7 μM adenosine-tri-phosphate (ATP, 16.7 μM=>final conc. in the 5 μl assay volume is 10 μM) and peptide substrate (1.67 μM=>final conc. in the 5 μl assay volume is 1 μM) in assay buffer and the resulting mixture was incubated for a reaction time of 60 min at 22° C. The concentration of Mps-1 in the assay was adjusted to the activity of the enzyme lot and was chosen appropriate to have the assay in the linear range, typical enzyme concentrations were in the range of about 0.5 nM (final conc. in the 5 μl assay volume). The reaction was stopped by the addition of 5 μl of a solution of TR-FRET detection reagents (100 mM Hepes pH 7.4, 0.1% BSA, 40 mM EDTA, 140 nM Streptavidin-XLent [#61GSTXLB, Fa. Cis Biointernational, Marcoule, France], 1.5 nM anti-phospho(Ser/Thr)-Europium-antibody [#AD0180, PerkinElmer LAS, Rodgau-Jugesheinn, Germany]. Instead of the 1.5 nM anti-phospho(Ser/Thr)-Europium-antibody a mixture of 2 nM unlabeled anti-phospho ser/thr-pro antibody MPM-2 [Millipore cat. #05-368] and 1 nM LANCE EU-W1024 labeled anti-mouse IgG antibody [Perkin-Elmer, product no. AD0077] can be used).
The resulting mixture was incubated 1 h at 22° C. to allow the binding of the phosphorylated peptide to the anti-phospho(Ser/Thr)-Europium-antibody. Subsequently the amount of phosphorylated substrate was evaluated by measurement of the resonance energy transfer from the Europium-labelled anti-phospho(Ser/Thr) antibody to the Streptavidin-XLent. Therefore, the fluorescence emissions at 620 nm and 665 nm after excitation at 350 nm was measured in a Viewlux TR-FRET reader (PerkinElmer LAS, Rodgau-Jugesheinn, Germany). The “blank-corrected normalized ratio” (a Viewlux specific readout, similar to the traditional ratio of the emissions at 665 nm and at 622 nm, in which blank and Eu-donor crosstalk are subtracted from the 665 nm signal before the ratio is calculated) was taken as the measure for the amount of phosphorylated substrate. The data were normalised (enzyme reaction without inhibitor=0% inhibition, all other assay components but no enzyme=100% inhibition).
Background: In TR-FRET formats the signal depends on donor and acceptor labels being close together.

Regarding `Cc1nsc(Nc2cnc3ccccc3n2)c1C(=O)Nc1ccc(NC2CC2)nc1` [Example 172, N-[6-(cyclopropylamino)pyridin-3-yl]-3-methyl-5-(quinoxalin-2-ylamino)-1,2-thiazole-4-carboxamide], the IC50 was above 20 µM.
With `Cc1nsc(Nc2cnc(C(F)(F)F)cn2)c1C(=O)Nc1ccc(F)c(OCC2CCCN(CC(F)F)C2)c1` (stereo not shown) [Example 335, N-(3-{[1-(2,2-difluoroethyl)piperidin-3-yl]methoxy}-4-fluorophenyl)-3-methyl-5-{[5-(trifluoromethyl)pyrazin-2-yl]amino}-1,2-thiazole-4-carboxamide], the IC50 is at least 20 µM.
In the case of `Cc1nsc(Nc2cnc(C(F)(F)F)cn2)c1C(=O)Nc1ccc(OC2CCN(CCC(F)(F)F)CC2)nc1` [Example 10, 3-Methyl-5-{[5-(trifluoromethyl)pyrazin-2-yl]amino}-N-(6-{[1-(3,3,3-trifluoropropyl)-piperidin-4-yl]oxy}pyridin-3-yl)-1,2-thiazole-4-carboxamide], the IC50 is at least 20 µM.
For `Cc1nsc(Nc2cnc3ccccc3n2)c1C(=O)Nc1ccc(N2CCOCC2)nc1` [Example 169, 3-methyl-N-[6-(morpholin-4-yl)pyridin-3-yl]-5-(quinoxalin-2-ylamino)-1,2-thiazole-4-carboxamide], the IC50 was above 20 µM.
In the case of `Cc1nsc(Nc2cnc(C(F)(F)F)cn2)c1C(=O)Nc1ccc(OCC2CCN(CCC(F)(F)F)C2)nc1` (stereo not shown) [Example 124, 3-methyl-5-{[5-(trifluoromethyl)pyrazin-2-yl]amino}-N-(6-{[1-(3,3,3-trifluoropropyl)pyrrolidin-3-yl]methoxy}pyridin-3-yl)-1,2-thiazole-4-carboxamide], the IC50 was at least 20 µM.
Regarding `Cc1nsc(Nc2cnc3ccccc3n2)c1C(=O)Nc1cccc(C(=O)N2CCNCC2)c1` [Example 101, 3-Methyl-N-[3-(piperazin-1-ylcarbonyl)phenyl]-5-(quinoxalin-2-ylamino)-1,2-thiazole-4-carboxamide], the IC50 was 18 µM.
For `Cc1nsc(Nc2cnc(C(F)(F)F)cn2)c1C(=O)Nc1ccc(C(=O)NCCN2CCCC(F)(F)C2)cc1` [Example 153, N-(4-{[2-(3,3-difluoropiperidin-1-yl)ethyl]carbamoyl}phenyl)-3-methyl-5-{[5-(trifluoromethyl)pyrazin-2-yl]amino}-1,2-thiazole-4-carboxamide] the value was above 20 µM.
In the case of `Cc1nsc(Nc2cnc3ccccc3n2)c1C(=O)Nc1ccc(C(=O)NCCN2CCCC(F)(F)C2)cc1` [Example 156, N-(4-{[2-(3,3-difluoropiperidin-1-yl)ethyl]carbamoyl}phenyl)-3-methyl-5-(quinoxalin-2-ylamino)-1,2-thiazole-4-carboxamide], the IC50 was above 20 µM.
Consider `Cc1nsc(Nc2cncc(C(F)(F)F)n2)c1C(=O)Nc1ccc(C(=O)NCCN2CCCC(F)C2)cc1` (stereo not shown) [Example 155, N-(4-{[2-(3-fluoropiperidin-1-yl)ethyl]carbamoyl}phenyl)-3-methyl-5-{[6-(trifluoromethyl)pyrazin-2-yl]amino}-1,2-thiazole-4-carboxamide], for which the IC50 came out at 18 µM.
Turning to `CCCN1CC[C@H](Oc2ccc(NC(=O)c3c(C)nsc3Nc3cnc(C(F)(F)F)cn3)cn2)[C@H](F)C1` [Example 147, N-(6-{[(3R,4S)-3-fluoro-1-propylpiperidin-4-yl]oxy}pyridin-3-yl)-3-methyl-5-{[5-(trifluoromethyl)pyrazin-2-yl]amino}-1,2-thiazole-4-carboxamide], the IC50 was above 20 µM.
For `Cc1nsc(Nc2cnc3ccccc3n2)c1C(=O)Nc1cccc(C(=O)N[C@@H](CCC(N)=O)C(=O)O)c1` [Example 103, N^2-[3-({[3-Methyl-5-(quinoxalin-2-ylamino)-1,2-thiazol-4-yl]carbonyl}amino)-benzoyl]glutamine] the value was 13 µM; for `Cc1nsc(Nc2cnc(C(F)(F)F)cn2)c1C(=O)Nc1ccc(OC2CCN(CC(F)(F)F)CC2)c(F)c1` [Example 163, N-(3-fluoro-4-{[1-(2,2,2-trifluoroethyl)piperidin-4-yl]oxy}phenyl)-3-methyl-5-{[5-(trifluoromethyl)pyrazin-2-yl]amino}-1,2-thiazole-4-carboxamide], above 20 µM.
For `Cc1nsc(Nc2cnc3ccccc3n2)c1C(=O)Nc1cccc(C(=O)N[C@H](C(=O)O)[C@@H](C)O)c1` [Example 105, N-[3-({[3-methyl-5-(quinoxalin-2-ylamino)-1,2-thiazol-4-yl]carbonyl}amino)-benzoyl]threonine] the value was 6.5 µM.
Regarding `CC(=O)N(C)CCOc1ccc(NC(=O)c2c(C)nsc2Nc2nc3c(C(F)(F)F)cccc3s2)cn1` [Example 112, N-(6-{2-[Acetyl(methyl)amino]-ethoxy}pyridin-3-yl)-3-methyl-5-{[4-(trifluoromethyl)-1,3-benzothiazol-2-yl]amino}-1,2-thiazole-4-carboxamide], the IC50 was at least 20 µM.
As for `Cc1nsc(Nc2cnc3ccccc3n2)c1C(=O)Nc1cccc(-c2nc(C(C)(C)C)no2)c1` [Example 108, N-[3-(3-tert-Butyl-1,2,4-oxadiazol-5-yl)phenyl]-3-methyl-5-(quinoxalin-2-ylamino)-1,2-thiazole-4-carboxamide], the IC50 was at least 20 µM.
Consider `Cc1nsc(Nc2cnc3ccccc3n2)c1C(=O)Nc1cccc(C(=O)NCC(=O)O)c1` [Example 99, N-[3-({[3-Methyl-5-(quinoxalin-2-ylamino)-1,2-thiazol-4-yl]carbonyl}amino)benzoy]-glycine], for which the IC50 stood at 9 µM.
Next, `Cc1nsc(Nc2cnc(C(F)(F)F)cn2)c1C(=O)Nc1ccc(O[C@@H]2CCN(CCC(F)(F)F)C[C@@H]2F)nc1` [Example 139, N-(6-{[(3S,4R)-3-fluoro-1-(3,3,3-trifluoropropyl)piperidin-4-yl]oxy}pyridin-3-yl)-3-methyl-5-{[5-(trifluoromethyl)pyrazin-2-yl]amino}-1,2-thiazole-4-carboxamide]: above 20 µM.
For the compound `Cc1nsc(Nc2cc(C#N)ccn2)c1C(=O)Nc1cccc(C(=O)N2CCCC2)c1` [Example 114, 5-[(4-Cyanopyridin-2-yl)amino]-3-methyl-N-[3-(pyrrolidin-1-ylcarbonyl)phenyl]-1,2-thiazole-4-carboxamide], the IC50 is at least 20 µM.
`Cc1nsc(Nc2cnc3ccccc3n2)c1C(=O)Nc1cccc(-c2nnc(C(C)(C)C)o2)c1` [Example 107, N-[3-(5-tert-Butyl-1,3,4-oxadiazol-2-yl)phenyl]-3-methyl-5-(quinoxalin-2-ylamino)-1,2-thiazole-4-carboxamide]: the IC50 is at least 20 µM.

The record behind these values is patent US20170334899A1, “AMINO-SUBSTITUTED ISOTHIAZOLES” (Bayer Pharma Aktiengesellschaft, priority 2014, published 2017).
